Assay results published in publication PMC8824275, “Gastrointestinal Stability and Cytotoxicity of Bacteriocins From Gram-Positive and Gram-Negative Bacteria: A Comparative in vitro Study” (Frontiers in Microbiology, 2022).
“Also recorded” adds a separate entry of the source.

Assays:
Caco-2 cells = experiment: LDH release assay (membrane integrity); type: cell-based, human; settings: Caco-2, CytoTox-ONE LDH release, 0.4 to 400 μg/mL, 24 h (method: 48 h), 37°C, mean of three experiments
Method: The human colonic adenocarcinoma (Caco-2) cells were purchased from ATCC. Cells were cultured in DMEM medium in a humidified atmosphere containing 5% CO2 at 37°C. For the LDH release assay, cells were seeded in 96 well flat bottom culture plates (1 × 10^4 cells/well). Caco-2 cells, which have been frequently used for permeability studies across the intestinal epithelium, were selected in this study for evaluating the cytotoxicity of bacteriocins and their interaction with intestinal epithelium during GI transit to determine their cytotoxicity.
The CytoTox-ONE™ cytotoxicity assay kit (Promega, United States) was used to measure the LDH release. […] Lysis solution (Promega) was added in a 1:1 ratio to selected control wells to induce the maximal release of LDH and the plate was incubated for 5 min. […] Finally, stop solution was then added to each well, and absorbance was measured using a spectrophotometer (Tecan Spark 20M, Morrisville, NC, United States) at excitation/emission wavelengths of 560/590 nm. Each compound-treated value was blanked with the values of the control-treated cells and cytotoxicity was expressed as percentage of the maximal LDH release (lysis solution treated cells), calculated by the following formula: […]

[1] = In vitro simulated GI digestion (INFOGEST, static), stability by RP-HPLC and LC-MS; type: in vitro ADME; settings: 37°C
Method: In vitro simulated oral, gastric, and small intestinal digestion was adopted from standardized INFOGEST protocol ([Brodkorb et al., 2019]) in three independent replicates. The initial concentration of bacteriocins was selected in order to have sufficient quantity in the digestion mixture to conduct both activity assay by agar well diffusion and by RP-HPLC for quantification.
The entire digestion procedure was performed at 37°C.
Oral conditions: 5 mL of a 8 mg/mL bacteriocin solution (in water) were mixed with simulated salivary fluid [SSF: KCl 15.1 mM, KH2PO4 3.7 mM, NAHCO3 13.6 mM, MgCl2(H2O)6 0.15 mM, (NH4)2CO3 0.06 mM, HCl 1.1mM, CaCl2 (H2O)2 1.5 mM] in 1:1 (v/v) ratio, and the final solution was incubated for 2 min at 37°C.
Gastric conditions: The sample from the oral condition was diluted in 1:1 (v/v) ratio with simulated gastric fluid [SGF: KCl 6.9 mM, KH2PO4 0.9 mM, NAHCO3 25 mM, NaCl 47.2 mM, MgCl2(H2O)6 0.12 mM, (NH4)2CO3 0.5 mM, HCl 15.6 mM, CaCl2 (H2O)2, 0.15 mM] containing pepsin (2000 U/mL in the gastric mixture), and lipase (60 U/mL in the gastric mixture). […]
Small intestine conditions: Samples from gastric conditions were diluted in 1:1 (v/v) ratio with 20 mL of simulated intestinal fluid[SIF KCl 6.8 mM, KH2PO4 0.8 mM, NAHCO3 85 mM, NaCl 38.4 mM, MgCl2(H2O)6 0.33 Mm, HCl 8.4 mM, CaCl2 (H2O)2, 0.6 mM] containing bile salt (10 mmol/L in the final […] mixture) and pancreatin (100 U/mL in final digestion mixture) to acquire a final volume of 40 mL. […] Bacteriocins in the different samples were analyzed by analytical HPLC-UV and liquid-chromatography mass spectrometry (LC-MS/MS). […]
The digestion mixtures were analyzed by LC-MS/MS on an ultra-high-performance LC system (Ultimate 3000 RSLC, Thermo Fisher Scientific) connected to high-resolution electrospray ionization – quadrupole – time of flight (ESI-Q-TOF) mass spectrometer (Maxis II ETD, Bruker Daltonics). […] Data-dependent LC-MS/MS data were acquired in positive ion mode in the mass range m/z 250–2500, using collision induced dissociation with collision energy calculated from m/z and charge states. […]

C=C(NC(=O)[C@@H](NC(=O)[C@H](Cc1c[nH]cn1)NC(=O)[C@@H](NC(=O)[C@H](CO)NC(=O)[C@@H]1CS[C@@H](C)[C@H]2NC(=O)[C@H](C)NC(=O)[C@H](NC(=O)[C@H](CCCCN)NC(=O)[C@H](CCSC)NC(=O)[C@H](CC(N)=O)NC(=O)[C@@H]3CS[C@@H](C)[C@@H](NC(=O)[C@H](CCCCN)NC(=O)[C@@H]4CS[C@@H](C)[C@@H](NC(=O)[C@@H]5CSC[C@@H](NC(=O)/C(=C/C)NC(=O)[C@@H](N)[C@@H](C)CC)C(=O)N[C@@H]([C@@H](C)CC)C(=O)NC(=C)C(=O)N[C@@H](CC(C)C)C(=O)N5)C(=O)N5CCC[C@H]5C(=O)NCC(=O)N4)C(=O)NCC(=O)N[C@@H](C)C(=O)N[C@@H](CC(C)C)C(=O)N[C@@H](CCSC)C(=O)NCC(=O)N3)[C@H](C)SC[C@H](NC2=O)C(=O)N[C@@H](CC(N)=O)C(=O)N1)[C@@H](C)CC)C(C)C)C(=O)N[C@@H](CCCCN)C(=O)O [nisin Z]
Membrane integrity (LDH release) (Caco-2 cells): uncompromised | Stability in gastric conditions ([1]; SGF with pepsin 2000 U/mL and lipase 60 U/mL, pH 3, 90 min, shaking, RP-HPLC and activity, three independent replicates): good gastric stability | Stability in small intestinal conditions ([1]; SIF with bile salt 10 mmol/L and pancreatin 100 U/mL, pH 7, 2 h, RP-HPLC and activity, three independent replicates): significantly degraded; also recorded: completely degraded | Stability in the GI tract (whole simulated digestion) ([1]; oral + gastric + small intestinal conditions): complete degradation
